Assay results: patent US20240024273A1, “TOPICAL ADMINISTRATION OF 2-(DIETHYLAMINO)ETHYL 2-(4-ISOBUTYLPHENYL)PROPRIONATE FOR TREATMENT OF DISEASES” (TECHFIELDS PHARMA CO., LTD., priority 2020, published 2024)

Tested on: Mild to Moderate Osteoarthritis of the Knee
Test: Phase 2 study: use of rescue medication (paracetamol)
Assay type: in vivo, human
Details: for Percentage of patients using rescue medication: only for knee pain
Experimental: Subjects taking nonsteroidal anti-inflammatory drugs (NSAID) or other analgesics may enroll in the trial, but will discontinue any analgesic therapy for the duration of the study, starting at least 4 days (or 5 half lives, whichever is longer) prior to administration of the first dose of study medication (i.e., for an analgesic washout period before Day 1). Subjects will be allowed to take rescue medication (up to six 325 mg tablets [total of 1950 mg] of acetaminophen per day; provided by the Sponsor) for residual knee or other body pain starting 4 days (or 5 half lives, whichever is longer) prior to administration of the first dose of study medication except during the 24 hours prior to Baseline (Day 1), Week 2, Week 4, Week 8, Week 12/end of study (EOS), and Follow up assessments.
Subjects will record the following information in a Daily Diary starting at Screening: the amount of knee pain in the target knee while walking during the preceding 24 hours (using a 100 mm visual analog scale [VAS]), the times and number of sprays for each administration of study medication, the times when the subject washes his/her knees and/or takes a shower, the number of tablets of rescue medication taken that day and the times taken, the reason for taking the rescue medication (e.g., knee pain, headache, low back pain), any other concomitant medications taken that day, and any AEs occurring that day.
3.9.3. Exploratory Efficacy Endpoints: • 1. Subject's global assessment of disease status of the target knee at 2, 4, 8, and 12 weeks of treatment; • 2. Investigator's global assessment of disease status of the target knee at 2, 4, 8, and 12 weeks of treatment; • 3. Subject's global assessment of response to therapy of the target knee at 2, 4, 8, and 12 weeks of treatment; • 4. Investigator's global assessment of response to therapy of the target knee at 2, 4, 8, and 12 weeks of treatment; • 5. Change from Baseline over time in VAS pain scores for the target knee from Daily Diary data; • 6. Amount of rescue medication (acetaminophen) consumed per day for target knee pain.
Zeidler thought that paracetamol as rescue medication in nearly all OA trials may be a missing link to explain at least partially the large placebo response in OA trials. (Henning Zeidler, Paracetamol and the Placebo Effect in Osteoarthritis Trials: A Missing Link? Pain Research and Treatment, Volume 2011, 1-6.) From published data, the difference of the used amount of paracetamol is very small between the placebo and active drug cohorts. […] (T. J. Schnitzer, A. Kivitz, H. Frayssinet, and B. Duquesroix, “Efficacy and safety of naproxcinod in the treatment of patients with osteoarthritis of the knee: a 13-week prospective, randomized, multicenter study.” Osteoarthritis and Cartilage, vol. 18, no. 5, pp. 629-639, 2010.) In this trial, NSAIDs or any analgesic therapy was discontinued for the duration of the study, starting at least 14 days (or 5 half lives, whichever is longer) prior to administration of the first dose of study medication (ie, for an analgesic washout period before Day 1). Subjects were allowed to take rescue medication (up to six 325 mg tablets [total of 1950 mg] of acetaminophen per day; provided by the Sponsor) for residual knee or other body pain starting at least 4 days (or 5 half lives, whichever is longer) prior to administration of the first dose of study medication except during the 24 hours prior to Baseline (Day 1), Week 2, Week 4, Week 8, Week 12/end of study (EOS), and Follow-up assessments.

[1] = for all pain and other conditions, 17.5 mg/knee (BID), Week 8
[2] = for all pain and other conditions, 17.5 mg/knee (BID), Week 12
[3] = for all pain and other conditions, 35 mg/knee (BID), Week 2
[4] = for all pain and other conditions, 35 mg/knee (BID), Week 4
[5] = for all pain and other conditions, 35 mg/knee (BID), Week 8
[6] = for all pain and other conditions, 35 mg/knee (BID), Week 12

CCN(CC)CCOC(=O)C(C)c1ccc(CC(C)C)cc1 (stereo not shown) [2-(diethylamino)ethyl 2-(4-isobutylphenyl)propionate]
Rescue medication (paracetamol), % of decrease from baseline (for all pain and other conditions, 17.5 mg/knee (BID), Week 4): 58.6% | Daily amount of rescue medication (paracetamol) [1]: 87 mg/day/patient | Rescue medication (paracetamol), % of decrease from baseline [1]: 68.7% | Daily amount of rescue medication (paracetamol) [2]: 69 mg/day/patient | Rescue medication (paracetamol), % of decrease from baseline [2]: 75.2% | Daily amount of rescue medication (paracetamol) (for all pain and other conditions, 35 mg/knee (BID), Day −2 to day −5 (baseline)): 310 mg/day/patient | Daily amount of rescue medication (paracetamol) [3]: 171 mg/day/patient | Rescue medication (paracetamol), % of decrease from baseline [3]: 44.8% | Daily amount of rescue medication (paracetamol) [4]: 158 mg/day/patient | Rescue medication (paracetamol), % of decrease from baseline [4]: 49.0% | Daily amount of rescue medication (paracetamol) [5]: 111 mg/day/patient | Rescue medication (paracetamol), % of decrease from baseline [5]: 64.2% | Daily amount of rescue medication (paracetamol) [6]: 94 mg/day/patient | Rescue medication (paracetamol), % of decrease from baseline [6]: 69.7% | Daily amount of rescue medication (paracetamol) (for other conditions excluding knee pain, 8.75 mg/knee (BID), Day −2 to day −5 (baseline)): 15 mg/day/patient | Daily amount of rescue medication (paracetamol) (for other conditions excluding knee pain, 8.75 mg/knee (BID), Week 2): 47 mg/day/patient | Daily amount of rescue medication (paracetamol) (for other conditions excluding knee pain, 8.75 mg/knee (BID), Week 4): 41 mg/day/patient | Daily amount of rescue medication (paracetamol) (for other conditions excluding knee pain, 8.75 mg/knee (BID), Week 8): 44 mg/day/patient | Daily amount of rescue medication (paracetamol) (for other conditions excluding knee pain, 8.75 mg/knee (BID), Week 12): 50 mg/day/patient | Daily amount of rescue medication (paracetamol) (for other conditions excluding knee pain, 17.5 mg/knee (BID), Day −2 to day −5 (baseline)): 35 mg/day/patient | Daily amount of rescue medication (paracetamol) (for other conditions excluding knee pain, 17.5 mg/knee (BID), Week 2): 50 mg/day/patient | Daily amount of rescue medication (paracetamol) (for other conditions excluding knee pain, 17.5 mg/knee (BID), Week 4): 48 mg/day/patient | Daily amount of rescue medication (paracetamol) (for other conditions excluding knee pain, 17.5 mg/knee (BID), Week 8): 33 mg/day/patient | Daily amount of rescue medication (paracetamol) (for other conditions excluding knee pain, 17.5 mg/knee (BID), Week 12): 13 mg/day/patient | Daily amount of rescue medication (paracetamol) (for other conditions excluding knee pain, 35 mg/knee (BID), Day −2 to day −5 (baseline)): 19 mg/day/patient | Daily amount of rescue medication (paracetamol) (for other conditions excluding knee pain, 35 mg/knee (BID), Week 2): 73 mg/day/patient | Daily amount of rescue medication (paracetamol) (for other conditions excluding knee pain, 35 mg/knee (BID), Week 4): 70 mg/day/patient | Daily amount of rescue medication (paracetamol) (for other conditions excluding knee pain, 35 mg/knee (BID), Week 8): 57 mg/day/patient | Daily amount of rescue medication (paracetamol) (for other conditions excluding knee pain, 35 mg/knee (BID), Week 12): 50 mg/day/patient | maximum decrease of rescue medication for all pain, pre-treatment to week 12 (in vivo): up to 75% | Percentage of patients using rescue medication (8.75 mg/knee (BID), Day −2 to day −5 (baseline)): 35.3% | Percentage of patients using rescue medication (8.75 mg/knee (BID), Week 2): 23.6% | Percentage of patients using rescue medication (8.75 mg/knee (BID), Week 4): 18.4% | Percentage of patients using rescue medication (8.75 mg/knee (BID), Week 8): 17.1% | Percentage of patients using rescue medication (8.75 mg/knee (BID), Week 12): 16.3% | Percentage of patients using rescue medication (17.5 mg/knee (BID), Day −2 to day −5 (baseline)): 24.0% | Percentage of patients using rescue medication (17.5 mg/knee (BID), Week 2): 11.3% | Percentage of patients using rescue medication (17.5 mg/knee (BID), Week 4): 8.4% | Percentage of patients using rescue medication (17.5 mg/knee (BID), Week 8): 7.2% | Percentage of patients using rescue medication (17.5 mg/knee (BID), Week 12): 6.5% | Percentage of patients using rescue medication (35 mg/knee (BID), Day −2 to day −5 (baseline)): 34.8% | Percentage of patients using rescue medication (35 mg/knee (BID), Week 2): 12.4% | Percentage of patients using rescue medication (35 mg/knee (BID), Week 4): 11.0% | Percentage of patients using rescue medication (35 mg/knee (BID), Week 8): 7.6% | Percentage of patients using rescue medication (35 mg/knee (BID), Week 12): 5.8% | maximum decrease in the use of rescue medication, paracetamol (pre-treatment to week 12): 84.9%
